Experimental findings from ChEMBL document CHEMBL5338751, “Discovery of the First-in-Class Intestinal Restricted FXR and FABP1 Dual Modulator ZLY28 for the Treatment of Nonalcoholic Fatty Liver Disease” (J Med Chem, 2023) are described below.

The structures appear in SMILES notation. Activity calls are given as the source filed them. No cut-off for these calls is given here.

Data set [1] addresses T1, Fatty acid-binding protein, liver (Homo sapiens, UniProt P07148).
T1 sequence (P07148 whole entry): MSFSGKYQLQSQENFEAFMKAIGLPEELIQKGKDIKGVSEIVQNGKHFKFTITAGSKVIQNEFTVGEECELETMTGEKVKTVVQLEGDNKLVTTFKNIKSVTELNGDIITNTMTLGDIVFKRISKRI
The data set can be described thus: Displacement of 8-anilino-1-naphthalene-sulfonic acid from FABP1 (unknown origin) incubated for 3 mins by fluorescence based assay.

The nature of data set [2]: Metabolic stability in human liver microsomes assessed as parent compound remaining incubated for 1 hr by LC-MS analysis. It counts as ADME, Microsome. As to conditions: read-out: Stability. For orientation: Microsomes from liver hold many membrane-bound enzymes, among them those of drug oxidation.
The target of data set [3] is T2, Peroxisome proliferator-activated receptor alpha (Homo sapiens, UniProt Q07869).
T2 sequence (Q07869 whole entry): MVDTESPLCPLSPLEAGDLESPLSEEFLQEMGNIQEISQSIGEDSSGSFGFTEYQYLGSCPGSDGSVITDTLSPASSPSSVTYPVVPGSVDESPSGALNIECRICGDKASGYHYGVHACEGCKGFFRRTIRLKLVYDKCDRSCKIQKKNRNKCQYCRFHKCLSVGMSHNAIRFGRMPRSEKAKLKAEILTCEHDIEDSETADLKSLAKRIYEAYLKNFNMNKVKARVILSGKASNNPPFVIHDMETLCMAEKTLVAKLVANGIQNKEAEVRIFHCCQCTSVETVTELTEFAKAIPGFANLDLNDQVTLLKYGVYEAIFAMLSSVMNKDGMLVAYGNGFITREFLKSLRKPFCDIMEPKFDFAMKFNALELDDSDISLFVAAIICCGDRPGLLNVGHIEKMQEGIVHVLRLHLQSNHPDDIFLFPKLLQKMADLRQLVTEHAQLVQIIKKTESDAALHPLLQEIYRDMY
The data set can be described thus: Agonist activity at pBIND-PPARalpha (unknown origin) transfected in HepG2 cells incubated for 18 hrs by renilla/firefly based dual-glo luciferase assay. It is filed as cell-based.

For data set [4], the target named is Retinoic acid receptor gamma (Homo sapiens, UniProt P13631). Briefly: Activation of Gal-DBD and NHRLBD fused RARgamma (unknown origin) transfected in African green monkey CV-1 cells by luciferase reporter assay. It is filed as cell-based. In general terms: In a reporter assay the amount or activity of a reporter protein is the signal.
Retinoic acid receptor gamma, sequence (P13631 whole entry, the tested form may be a part): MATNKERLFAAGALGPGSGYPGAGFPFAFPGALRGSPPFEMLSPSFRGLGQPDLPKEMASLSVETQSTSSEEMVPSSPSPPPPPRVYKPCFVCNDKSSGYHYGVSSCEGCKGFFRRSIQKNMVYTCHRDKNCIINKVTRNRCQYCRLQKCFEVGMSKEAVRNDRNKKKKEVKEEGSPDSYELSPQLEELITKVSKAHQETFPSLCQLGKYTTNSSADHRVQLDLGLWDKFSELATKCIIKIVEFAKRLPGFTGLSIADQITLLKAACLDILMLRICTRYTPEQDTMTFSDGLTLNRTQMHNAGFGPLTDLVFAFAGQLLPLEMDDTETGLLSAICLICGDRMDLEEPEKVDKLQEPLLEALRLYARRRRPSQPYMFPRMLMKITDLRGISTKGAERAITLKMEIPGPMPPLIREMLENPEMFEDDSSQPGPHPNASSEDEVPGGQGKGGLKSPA
For the next data set, the target named is Androgen receptor (Homo sapiens, UniProt P10275). The data set can be described thus: Activation of Gal-DBD and NHRLBD fused AR (unknown origin) transfected in African green monkey CV-1 cells by luciferase reporter assay. It is filed as cell-based.
Androgen receptor, sequence (P10275 whole entry, the tested form may be a part): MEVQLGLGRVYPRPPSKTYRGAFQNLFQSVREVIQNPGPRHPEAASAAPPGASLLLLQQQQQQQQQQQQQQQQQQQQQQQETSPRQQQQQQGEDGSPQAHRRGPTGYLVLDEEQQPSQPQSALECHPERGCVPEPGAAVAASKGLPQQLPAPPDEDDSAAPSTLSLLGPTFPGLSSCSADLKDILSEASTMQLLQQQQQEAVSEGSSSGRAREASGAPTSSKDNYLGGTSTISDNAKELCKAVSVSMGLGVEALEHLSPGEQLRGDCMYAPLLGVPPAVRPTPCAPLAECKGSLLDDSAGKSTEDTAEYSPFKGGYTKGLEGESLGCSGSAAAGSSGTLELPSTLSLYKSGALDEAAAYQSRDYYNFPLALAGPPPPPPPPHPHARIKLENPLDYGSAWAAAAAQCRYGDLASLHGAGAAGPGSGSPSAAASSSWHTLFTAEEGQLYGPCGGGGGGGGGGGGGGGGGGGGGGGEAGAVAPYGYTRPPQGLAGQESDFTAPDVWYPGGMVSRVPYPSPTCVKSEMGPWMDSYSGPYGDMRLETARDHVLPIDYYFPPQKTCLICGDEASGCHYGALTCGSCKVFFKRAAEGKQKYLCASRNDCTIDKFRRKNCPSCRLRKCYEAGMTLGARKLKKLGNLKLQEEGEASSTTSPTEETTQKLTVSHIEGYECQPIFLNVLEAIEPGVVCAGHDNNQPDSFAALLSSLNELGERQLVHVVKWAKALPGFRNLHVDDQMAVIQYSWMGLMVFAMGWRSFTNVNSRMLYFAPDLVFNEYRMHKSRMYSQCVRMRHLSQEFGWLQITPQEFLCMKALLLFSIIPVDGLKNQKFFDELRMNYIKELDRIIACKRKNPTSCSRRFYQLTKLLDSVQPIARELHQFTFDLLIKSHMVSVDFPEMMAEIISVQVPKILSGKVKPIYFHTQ
Data set [5] deals with Fatty acid-binding protein, heart (Homo sapiens, UniProt P05413). The data set can be described thus: Displacement of 8-anilino-1-naphthalene-sulfonic acid from FABP3 (unknown origin) incubated for 3 mins by fluorescence based assay.
Fatty acid-binding protein, heart, sequence (P05413 whole entry): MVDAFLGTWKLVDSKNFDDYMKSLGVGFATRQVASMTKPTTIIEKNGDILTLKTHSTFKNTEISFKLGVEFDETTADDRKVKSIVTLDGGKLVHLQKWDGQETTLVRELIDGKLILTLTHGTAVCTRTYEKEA
The target in data set [6] is T2, Peroxisome proliferator-activated receptor alpha. Briefly: Inhibition of pBIND-PPARalpha (unknown origin) transfected in HepG2 cells incubated for 18 hrs in presence of […] by dual luciferase reporter assay. It is filed as cell-based.
The nature of data set [7]: Drug concentration in C57BL/6 mouse liver at 20 mg/kg, po administered for 5 days and measured after 1 hr post final dose by LC-MS analysis. It is filed as ADME, organism-based. As to conditions: time 5 day, read-out: Ct.
The nature of data set [8]: Ratio of drug level in ileum to plasma in C57BL/6 mouse at 20 mg/kg, po administered for 5 days and measured after 1 hr post final dose by LC-MS analysis.
For data set [9], the target named is T3, Bile acid receptor (Mus musculus) (UniProt Q60641).
T3 sequence (whole entry): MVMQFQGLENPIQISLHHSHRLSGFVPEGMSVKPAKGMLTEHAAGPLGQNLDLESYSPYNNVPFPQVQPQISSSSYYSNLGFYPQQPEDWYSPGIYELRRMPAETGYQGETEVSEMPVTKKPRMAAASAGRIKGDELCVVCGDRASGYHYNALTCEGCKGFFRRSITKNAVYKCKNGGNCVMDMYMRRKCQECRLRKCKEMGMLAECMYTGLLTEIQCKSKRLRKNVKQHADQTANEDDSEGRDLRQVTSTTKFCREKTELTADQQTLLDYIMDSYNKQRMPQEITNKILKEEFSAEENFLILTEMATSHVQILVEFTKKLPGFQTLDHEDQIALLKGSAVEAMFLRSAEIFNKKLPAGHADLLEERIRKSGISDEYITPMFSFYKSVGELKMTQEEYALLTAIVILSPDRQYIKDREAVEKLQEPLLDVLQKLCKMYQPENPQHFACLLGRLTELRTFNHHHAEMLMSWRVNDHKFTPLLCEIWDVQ
Briefly: Activation of FXR in C57BL/6 mouse ileum assessed as upregulation of SHP gene expression at 20 mg/kg, po administered for 5 days and measured after 1 hr post final dose by RT-PCR analysis. As to conditions: filed as activator, time 5.0 day. It is filed as organism-based.

The target of data set [10] is T3, Bile acid receptor (Mus musculus). The data set can be described thus: Activation of FXR in C57BL/6 mouse ileum assessed as upregulation of FGF15 gene expression in ileum at 20 mg/kg, po administered for 5 days and measured after 1 hr post final dose by RT-PCR analysis. It is filed as organism-based. As to conditions: filed as activator, time 5.0 day.
For data set [11], the system named is Mus musculus. The data set can be described thus: In vivo inhibition of FABP1 in western diet and CCl4-induced nonalcoholic steatohepatitis C57BL/6 mouse assessed as reduction in NEFA uptake in fecal at 20 mg/kg, po administered for 12 weeks starting from week 8 and change in dose for every 5 days. As to conditions: time 4.0 weeks. It is filed as functional, organism-based.

The test system of data set [12] is Mus musculus. Briefly: Anti-NASH activity in western diet and CCl4-induced nonalcoholic steatohepatitis C57BL/6 mouse assessed as reduction in IL-1beta level at 20 mg/kg, po administered for 12 weeks starting from week 8 and change in dose for every 5 days by ELISA. As to conditions: time 4.0 weeks. It is filed as functional, organism-based. For orientation: An ELISA detects its analyte on a solid surface through an enzyme-linked reagent.

Data set [13] relates to Mus musculus. Briefly: Anti-NASH activity in western diet and CCl4-induced nonalcoholic steatohepatitis C57BL/6 mouse assessed as downregulation of IL6 expression level at 20 mg/kg, po administered for 12 weeks starting from week 8 and change in dose for every 5 days by ELISA. It is filed as functional, organism-based. As to conditions: time 4.0 weeks.
For data set [14], the system named is Mus musculus. The data set can be described thus: Anti-NASH activity in western diet and CCl4-induced nonalcoholic steatohepatitis C57BL/6 mouse assessed as downregulation of F4/80 expression level at 20 mg/kg, po administered for 12 weeks starting from week 8 and change in dose for every 5 days. It is filed as functional, organism-based. As to conditions: time 4.0 weeks.

Data set [15] deals with T3, Bile acid receptor (Mus musculus). Briefly: In vivo activation of FXR pathway in western diet and CCl4-induced nonalcoholic steatohepatitis C57BL/6 mouse model assessed as downregulation of CYP7A1 mRNA level in […] at 20 mg/kg, po administered for 12 weeks starting from week 8 and change in dose for every 5 days. It is filed as functional, organism-based. To be noted: time 4.0 weeks.

For data set [16] the target is unchanged. The data set can be described thus: In vivo activation of FXR pathway in western diet and CCl4-induced nonalcoholic steatohepatitis C57BL/6 mouse model assessed as upregulation of SHP gene expression in ileum at 20 mg/kg, po administered for 12 weeks starting from week 8 and change in dose for every 5 days by RT-PCR analysis. It counts as functional, organism-based. To be noted: time 4.0 weeks.

The nature of data set [17]: Subacute toxicity in ICR mouse assessed as animal death at 500 mg/kg/day, po administered for 14 days. It counts as organism-based. As to conditions: in vivo, 336 h, time 14 day.
Data set [18] is described as follows: Subacute toxicity in ICR mouse assessed as abnormal behaviour at 500 mg/kg/day, po administered for 14 days. It is filed as organism-based. As to conditions: in vivo, 336 h, time 14 day.
A short description of data set [19]: Subacute toxicity in ICR mouse assessed as changes in animal growth at 500 mg/kg/day, po administered for 14 days. As to conditions: in vivo, 336 h, time 14 day. It is filed as organism-based.
A short description of data set [20]: Subacute toxicity in ICR mouse assessed as changes in serum UA level at 500 mg/kg/day, po administered for 14 days. It is filed as organism-based. To be noted: in vivo, 336 h, time 14 day.
The nature of data set [21]: Subacute toxicity in ICR mouse assessed as reduction in serum ALP level at 500 mg/kg/day, po administered for 14 days. It counts as organism-based. As to conditions: in vivo, 336 h, time 14 day.

By IC50 is commonly meant the concentration at which inhibition is half-maximal. The EC50 is the concentration needed to bring the measured effect to its halfway point. By Kp is commonly meant tissue or fluid exposure divided by exposure in the circulation. Take `O=C(O)C1(c2cccc(-c3ccc(OCc4c(-c5c(Cl)cccc5Cl)noc4C4CC4)cc3)c2)CC1`: the IC50 in [1] is 2.7 µM; in [5], > 30 µM; in data set [6], > 10 µM. Also, the remaining at 1 h in data set [2] amounted to 71.6%. Further, the EC50 (in data set [3]; in data set [4]; at Androgen receptor) was > 10 µM each time. Besides, the concentration at 120 h in data set [7] is 37.2 ng/g. Further, the Kp at 120 h in data set [8] amounted to 104. For the same molecule, the outcome (in data set [9]; in [10]; in the data set with Mus musculus [11]; in the data set with Mus musculus [12]; with Mus musculus [13]; in the data set with Mus musculus [14]) was Active. Moreover, the outcome in [15] and in data set [16] was Active. In addition, the Activity result in data set [17], in [18], in [19], in data set [20] and in data set [21] was “Non-Toxic” each time.
